Assay results taken from the Kinase Knowledgebase extract (Sharma et al. 2016).

Each compound was assayed against CDK2 (UniProt P24941) (assay: Enzyme Assay).

Row | IC50 [nM] | Structure (SMILES)
1 | 600 | CNc1nc(C)c(-c2ccnc(Nc3cccc(F)c3)n2)s1
2 | 600 | COCCOC(=O)c1cc(Nc2nccc(-c3sc(C)nc3C)n2)ccc1F
3 | 1500 | Cc1nc(C)c(-c2ccnc(Nc3ccc([N+](C)(C)C)cc3)n2)s1
4 | 700 | Cc1nc(C)c(-c2ccnc(Nc3ccc(Cc4ccncc4)cc3)n2)s1
5 | 600 | COc1ccc(Nc2nccc(-c3sc(C)nc3C)n2)c(O)c1
6 | 3000 | CNc1nc(C)c(-c2ccnc(Nc3cccc(Cl)c3)n2)s1
7 | 10000 | CNc1nc(C)c(-c2ccnc(Nc3ccc(Cl)c(C(F)(F)F)c3)n2)s1
8 | 1400 | Cc1nc(C)c(-c2ccnc(Nc3cccc(NC(=N)N)c3)n2)s1
9 | 1200 | CNc1nc(C)c(-c2ccnc(Nc3ccc(F)c(F)c3)n2)s1
10 | 1100 | COC(=O)c1cc(Nc2nccc(-c3sc(C)nc3C)n2)ccc1Cl
11 | 2000 | CNc1nc(C)c(-c2ccnc(Nc3cc(F)cc(F)c3)n2)s1
12 | 800 | CNc1nc(C)c(-c2ccnc(Nc3ccc(OC)cc3)n2)s1

These compounds were tested against CDK2 (UniProt P24941) (assay: not given).

Row | IC50 [nM] | Structure (SMILES)
13 | 9000 | Cc1nc(C)c(-c2ccnc(Nc3ccc(Cl)cc3)n2)s1

These compounds were tested against MAPK14 (UniProt Q16539) (assay: SAPK2-alpha Kinase Inhibition).
Chain of MAPK14 (Q16539 whole entry, looked up): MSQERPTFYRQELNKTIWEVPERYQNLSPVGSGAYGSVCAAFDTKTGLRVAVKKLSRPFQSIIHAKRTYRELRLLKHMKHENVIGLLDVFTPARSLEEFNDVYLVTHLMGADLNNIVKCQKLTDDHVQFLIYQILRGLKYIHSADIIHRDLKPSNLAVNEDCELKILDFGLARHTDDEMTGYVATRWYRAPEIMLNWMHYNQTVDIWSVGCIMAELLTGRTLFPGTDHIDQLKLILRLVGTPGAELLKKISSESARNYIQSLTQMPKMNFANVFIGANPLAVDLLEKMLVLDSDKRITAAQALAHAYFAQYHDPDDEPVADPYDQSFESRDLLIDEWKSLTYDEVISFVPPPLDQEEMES

Row | IC50 [nM] | Structure (SMILES)
14 | > 20000 | Cc1nc(C)c(-c2ccnc(Nc3cccc([N+](=O)[O-])c3)n2)s1
15 | > 20000 | Cc1nc(C)c(-c2ccnc(Nc3ccc(F)cc3)n2)s1
16 | > 20000 | Cc1nc(C)c(-c2ccnc(Nc3ccc(Cl)cc3)n2)s1
